Like-named read-outs stand apart in the source and are kept apart here.

Test [1] deals with osteoarthritis. The settings on record: cited from earlier work; for clinical difference between the high potency narcotics and tramadol: human, in vivo.
Test [2] concerns osteoarthritis. The settings on record: 6 trials, 1501 participants, cited from earlier work.
Test [3] has as its system osteoarthritis syndrome in both knees. Nature of the test: Composition given by intra-articular injection in one knee, other knee left untreated. The settings on record: patient. The test is classed as in vivo, human. The method, then:
A patient is diagnosed with osteoarthritis syndrome in both knees. […] A patient is diagnosed with osteoarthritis syndrome in both knees. A composition comprising the ACE inhibitor enalapril is administered by intra-articular injection in one knee while the other knee is left untreated. […] A patient is diagnosed with osteoarthritis syndrome in both knees. A composition comprising the angiotensin receptor blocker losartan is administered by intra-articular injection in one knee while the other knee is left untreated.

For test [4] the test system is unchanged. The test can be described thus: Composition applied to the skin in the region of one knee, other knee left untreated. It counts as in vivo, human. The settings on record: patient, topical application to skin in the region of one knee. From the text:
A patient is diagnosed with osteoarthritis syndrome in both knees.
A patient is diagnosed with osteoarthritis syndrome in both knees. A composition comprising the ACE inhibitor enalapril is directly applied to the skin in the region of one knee while the other knee is left untreated.
A patient is diagnosed with osteoarthritis syndrome in both knees. A composition comprising the angiotensin receptor blocker losartan is directly applied to the skin in the region of one knee while the other knee is left untreated.

As for `N[C@H]1C(O)O[C@H](CO)[C@@H](O)[C@@H]1O.O=S(=O)(O)O` (stereo partly shown) [glucosamine sulfate], the pain and function entry in the test on osteoarthritis [1] (industry-sponsored study of 604 patients) was “statistical significant reduction in pain and increase in function”. Also, in the test on osteoarthritis [1] (meta-analysis of 25 randomized placebo controlled clinical trials, 3458 patients), the effect versus placebo result is listed as “failed to find any significant effects”. Besides, the “preventive effect on osteoarthritis” value in the test on osteoarthritis [2] (after 3 years, benefit clinically irrelevant) is “small statistical effect”; in the test with osteoarthritis [2] (after one year), “no preventive effect”.

For `COc1cccc(C2(O)CCCCC2CN(C)C)c1` (stereo not shown) [tramadol], in the test with osteoarthritis [1], the “clinical difference between the high potency narcotics and tramadol” value is recorded as “no clinically observable difference”.

For `CC(=O)Nc1ccc(O)cc1` [Tylenol], in the test with osteoarthritis [1] (meta-analysis of 74 randomized clinical trials, 58556 patients), the clinical effect entry is given as “did not have a clinically relevant effect”.

Turning to `CCCCc1nc(Cl)c(CO)n1Cc1ccc(-c2ccccc2-c2nn[nH]n2)cc1` [losartan], the “symptoms of osteoarthritis syndrome, treated knee versus untreated knee” value in test [3] and in test [4] was “reduced symptoms of osteoarthritis syndrome” in each case.

With `CN1CC[C@]23c4c5ccc(O)c4O[C@H]2[C@@H](O)C=C[C@H]3[C@H]1C5` [morphine], the “clinical difference between the high potency narcotics and tramadol” value in the test with osteoarthritis [1] is given as “no clinically observable difference”.

Turning to chondroitin sulfate, the “effect on pain and function” value in the test with osteoarthritis [1] (meta-analysis of 20 randomized clinical studies, 3846 patients, called negligible) was 0.003%.

Consider `COc1ccc2c3c1O[C@H]1C(=O)CC[C@@]4(O)[C@@H](C2)N(C)CC[C@]314` [oxycodone], for which, in the test on osteoarthritis [1], the “clinical difference between the high potency narcotics and tramadol” value was “no clinically observable difference”.

In the case of `CCOC(=O)[C@H](CCc1ccccc1)N[C@@H](C)C(=O)N1CCC[C@H]1C(=O)O` [enalapril], the “symptoms of osteoarthritis syndrome, treated knee versus untreated knee” value in test [3] and in test [4] was “reduced symptoms of osteoarthritis syndrome” throughout.

The values above are taken from patent US20210290606A1, “METHOD TO PREVENT AND TREAT OSTEOARTHRITIS BY CALCIUM CHANNEL BLOCKERS, ANGIOTENSIN CONVERTING ENZYME INHIBITORS, AND ANGIOTENSIN RECEPTOR BLOCKERS” (priority 2018, published 2021).
